This is an account of results in ChEMBL document CHEMBL1799924, “Synthesis and activities of naphthalimide azoles as a new type of antibacterial and antifungal agents” (2011).

The test system of experiment [1] is Salmonella typhi. Kind of experiment: Antibacterial activity against Bacillus typhi by microbroth dilution method. The format is functional, Salmonella enterica subsp. enterica serovar Typhi. Conditions: Salmonella enterica.
Experiment [2] concerns Staphylococcus aureus. The experiment is described as follows: Antibacterial activity against Staphylococcus aureus ATCC 25923 by microbroth dilution method. The format is functional.
Experiment [3] has as its system Candida albicans. Kind of experiment: Antifungal activity against Candida albicans ATCC 76615 by microbroth dilution method. The format is functional.
Experiment [4] has as its system Pseudomonas aeruginosa. Kind of experiment: Antibacterial activity against Pseudomonas aeruginosa by microbroth dilution method. The format is functional.
Experiment [5] relates to Micrococcus luteus. Kind of experiment: Antibacterial activity against Micrococcus luteus by microbroth dilution method. The format is functional.
Experiment [6] has as its system Escherichia coli. Kind of experiment: Antibacterial activity against Escherichia coli JM 109 by microbroth dilution method. Format: functional.
The test system of experiment [7] is Candida. The experiment is described as follows: Antifungal activity against Candida mycoderma by microbroth dilution method. The format is functional.
In experiment [8] the test system is Bacillus subtilis. The experiment is described as follows: Antibacterial activity against Bacillus subtilis ATCC 6633 by microbroth dilution method. Format: functional.
The subject of experiment [9] is Bacillus. The experiment is described as follows: Antibacterial activity against Bacillus proteus by microbroth dilution method. The format is functional.
Experiment [10] has as its system Staphylococcus aureus. Kind of experiment: Antibacterial activity against methicillin-resistant Staphylococcus aureus N 315 by microbroth dilution method. Format: functional.

The structures appear in SMILES notation.

Consider `O=C1c2cccc3c(Br)ccc(c23)C(=O)N1CCCCCn1cc[n+](Cc2ccc(F)cc2F)c1.[Br-]`, for which the MIC in experiment [1] is 16 µg/mL; in experiment [2], 16 µg/mL; in experiment [3], 16 µg/mL; in experiment [4] it was 16 µg/mL; in experiment [5] it was 4 µg/mL; in experiment [6], 16 µg/mL. For the same compound, the minimal inhibitory concentration (MIC) in experiment [7] worked out at 16 µg/mL; in experiment [8], 16 µg/mL; in [9], 4 µg/mL; in [10], 8 µg/mL.
Consider `O=C1c2cccc3c(Br)ccc(c23)C(=O)N1CCCCCCn1cc[n+](Cc2ccc(F)cc2F)c1.[Br-]`, for which the minimal inhibitory concentration (MIC) stood at 32 µg/mL in experiment [1]; 16 µg/mL in experiment [2]; 32 µg/mL in experiment [3]; 64 µg/mL in experiment [4]; 32 µg/mL in experiment [5]; 32 µg/mL in [6]. The minimal inhibitory concentration (MIC) was 32 µg/mL in experiment [7], 16 µg/mL in experiment [8], 32 µg/mL in experiment [9] and 16 µg/mL in [10].
